Reference: patent US20190032014A1, “USING MICROBIOTA METABOLITES TO DIFFERENTIATE NAÏVE T-CELLS AND RELATED METHODS TO INDUCE OR PREVENT INFLAMMATORY CONDITIONS” (THE TEXAS A&M UNIVERSITY SYSTEM, priority 2016, published 2019)
“Also recorded” adds a separate entry of the source.

Key:
CD4+ CD25− naïve T cells = experiment: In vitro naïve T cell differentiation, Th2-skew (IL-4+); format: cell-based, C57BL/6 mice; conditions: Th2 skewing conditions; vs solvent control
Procedure: When naïve CD4+ CD25− cells were cultured 72 hours in αCD3/28 coated wells with Th0-, Th1- or Th2-skew cytokines and indole or solvent control, followed by stimulation with PMA, Ionomycin and Golgi Plug for the last 5 hours of culture, no effect on the % of Th1 and Th2 cells was observed (in contrast to the significant effect that indole has on Treg and Th17 cells; see FIGS. 2A and 2B).
CD4+ CD25− T cells were isolated to high purity (>98%) from the pooled spleen and mesenteric lymph nodes of C57BL/6 mice (Jackson Labs) with a BD FACS Aria II flow cytometer. Fc Block (BD), αCD4-efluor450 (eBioscience clone GK1.5) and αCD25-PECy7 (eBioscience clone PC61.5) antibodies were used for staining before sorting.
For Th1-skew: 5 ng/mL IL-12 (Peprotech cat. #210-12) and 10 µg/mL αIL-4 (BioXCell clone 11B11) were added to culture. For Th2-skew: 10 ng/mL IL-4 (Peprotech) and 10 μg/mL αIFN-γ (BioXCell clone R4-6A2) were added to culture. For Th17-skew: 10 ng/mL IL-6 (Peprotech), 5 ng/mL IL-23 (R&D), 0.5 ng/mL TGF-β (Peprotech), 10 μg/mL al-4 (BioXCell clone 11B11), and 10 μg/mL αIFN-γ (BioXCell clone R4-6A2) were added to culture. For Treg-skew: 2 ng/mL TGF-β (Peprotech) and 100 U/mL IL-2 (Roche) were added to culture. Sodium Propionate, sodium acetate, sodium butyrate and sodium chloride (all from Sigma-Aldrich) were solubilized in media and added to culture. […]

[1] = target: T1, aryl hydrocarbon receptor (AhR) (Homo sapiens, UniProt P35869); conditions: intestinal epithelial cells; Jin et al. 2014; cited from earlier work
T1 sequence (P35869 11-848): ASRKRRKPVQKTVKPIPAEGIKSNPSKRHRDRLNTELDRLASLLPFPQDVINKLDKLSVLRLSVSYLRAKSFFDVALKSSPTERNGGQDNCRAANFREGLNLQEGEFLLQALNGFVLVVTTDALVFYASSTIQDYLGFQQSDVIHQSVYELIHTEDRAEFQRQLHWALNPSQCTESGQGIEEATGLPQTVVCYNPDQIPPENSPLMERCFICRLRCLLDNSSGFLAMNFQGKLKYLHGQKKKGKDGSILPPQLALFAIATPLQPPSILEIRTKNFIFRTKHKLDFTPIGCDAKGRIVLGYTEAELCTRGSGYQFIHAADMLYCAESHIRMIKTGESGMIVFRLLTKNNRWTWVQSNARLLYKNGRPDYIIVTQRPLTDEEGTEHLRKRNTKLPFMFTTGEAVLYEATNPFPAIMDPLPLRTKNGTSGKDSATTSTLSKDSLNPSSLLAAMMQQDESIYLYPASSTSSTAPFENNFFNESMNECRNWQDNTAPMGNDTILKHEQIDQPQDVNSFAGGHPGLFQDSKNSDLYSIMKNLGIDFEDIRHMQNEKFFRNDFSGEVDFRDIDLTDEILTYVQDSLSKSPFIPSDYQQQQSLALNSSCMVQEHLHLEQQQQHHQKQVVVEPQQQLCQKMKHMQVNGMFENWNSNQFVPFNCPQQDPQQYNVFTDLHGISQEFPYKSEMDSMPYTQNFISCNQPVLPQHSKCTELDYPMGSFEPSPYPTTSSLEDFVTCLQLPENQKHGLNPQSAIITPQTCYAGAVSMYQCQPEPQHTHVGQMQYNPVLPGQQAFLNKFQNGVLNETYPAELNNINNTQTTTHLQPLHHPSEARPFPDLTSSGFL

iTregs = experiment: iTreg cytokine expression (TGF-β, IL-10); format: cell-based, mice
Procedure: FOXP3-EGFP naïve CD4+ CD25− cells cultured in αCD3/28 coated wells with Treg-skew cytokines and indole or solvent control were cultured for 72 hours, and assessed for FoxP3 expression and proliferation by CFSE dilution.
The iTregs were next assessed for cytokine production when conditioned with indole or butyrate.
For flow cytometry, cells are treated with Golgi plug (Brefeldin A) for four hours and then stained with fluorophore-conjugated mAbs against both inflammatory (e.g., IL-6, IL-12, IL-17, TNF-α) and anti-inflammatory (e.g., IL-10, IL-35, TGF-β) cytokines. Samples are stained with the maximum number of antibodies. Furthermore, expression of established Treg markers (FOXP3, CD25hi, CD103, CD62L, GITR, PD-1, CD152, CD127, ICOS, Granzyme-B) [Vignali, D. A., L. W. Collison, and C. J. Workman, Nat Rev Immunol 8(7):523-32. (2008); Chen, J., et al., Int Immunopharmacol 11(5):610-7 (2011)] and markers of an inflammatory phenotype (RORγT) can be analyzed. […] For all conditions, Tregs generated without the TDMM can be used as the control. The effect of the TDMMs on suppression of effector T cell proliferation is determined as described for FIG. 4. Such assays permit determination of whether the iTregs generated with different TDMMs are functional as natural Tregs.

[2] = system: T cells of spleen and mesenteric lymph nodes; experiment: In vivo acute T cell activation (αCD3) in spleen and MLN; parameters: species or system mice; conditions: administered with αCD3 at 0 and 48 hrs
Procedure: After 52 additional hours, the spleens were harvested and homogenized. Cells were plated, stimulated with PMA/lonomycin, stained for the indicated T cell markers, and subjected to FACS analysis. The graphs show the % IFN-γ+ CD4+ cells (FIG. 26A), the % IFN-γ+ CD4+ CD44^low cells (FIG. 26B), and the % IFN-γ+ CD4+ CD44^high cells (FIG. 26C) resulting from the various treatments. […] The graphs show the % IFN γ+ CD4+ cells (FIG. 27A), the % IFN γ+ CD4+ CD44low cells (FIG. 27B), and the % IFN γ+ CD4+ CD44high cells (FIG. 27C) resulting from the various treatments.
Fifteen μg of αCD3 (BioXcell clone 145-2C11) was administered via intra-peritoneal injection at 0 and 48 hours. […] At 52 hours, spleen and mesenteric lymph nodes were isolated and plated individually at a concentration of 1×10^6 cells/well with RPMI media supplemented with 2-mercaptoethanol, gentamicin, penicillin, and streptomycin+10% FCS (all from Life Technologies) in a 96-well round bottom plate (Falcon). Cells were immediately stimulated for 4 hours and stained. Specifically, for the last four hours of culture, cells were treated with golgi plug (BD), PMA and ionomycin (both from Sigma-Aldrich).

## c1ccc2[nH]ccc2c1 [Indole, indole]
CD4+ CD25− naïve T cells
  effect on % Th2 cells (IL-4+): no effect; also recorded: did not influence the development of Th1 and Th2 cells
[1]
  AhR agonist/antagonist activity: acts as both an agonist and antagonist
iTregs; indole-conditioned Tregs vs control iTregs (DMF), overnight re-stimulation with αCD3
  TGF-β secretion: secrete more TGF-β than conventional control iTregs (DMF)
iTregs; indole-conditioned iTregs
  IL-10 expression: inhibition of IL-10 expression
iTregs; indole-conditioned vs butyrate-conditioned iTregs
  TGF-β expression: increased TGF-β expression over butyrate-conditioned iTregs
[2]; mesenteric lymph nodes
  Treg differentiation in vivo (MLN): synergizes with butyrate for the induction of Treg cells in vivo; also recorded: can augment Treg development in vivo when administered to the subject directly
[2]; spleen
  Th1 differentiation in vivo (% IFN-γ+ CD4+ cells, spleen): suppresses butyrate induction of Th1 cells in vivo
